Test results from patent US20090082371A1, “Treatment of Viral Disease and Cancer With Nf-kappaB Inhibitors” (priority 2005, published 2009).

What was measured:
[1] = test system: retrovirus expressing GFP; conditions: 293T cells, tested dosages, two days after infection
Description: 293T human embryonic kidney cells were infected with the GFP-retrovirus. […] Two days later, the cells were photographed with a digital camera mounted on a microscope. […] Data represent the mean±standard deviation of three independent experiments.
Two days later, the number of infected cells from two separate experiments was counted.

[2] = test system: VSV-G-enveloped HIV-Luciferase viruses (HIV-1)
[3] = test system: Hela human cervical cancer cells; experiment: Cancer cell growth, viable cell count by trypan blue exclusion; type: cell-based; conditions: for % inhibition of cell growth / inhibition at 5 µM: day 6, vs untreated cells; for inhibition at 5 µM: Homo sapiens, 144 h
Description: (§1) The tested cells include LNCAP human prostate cancer cells, MDA-MB-468 human breast cancer cells, H1299 human lung cancer cells, AGS human gastric cancer cells, HepG2 human liver cancer cells, PANC-1 human pancreatic carcinoma cells, Jurkat human acute T-cell leukemia cells, A431 human epidermoid carcinoma cells, U251 human glioma cells, NBT-II human bladder cancer cells, and Hela human cervical cancer cells.

[4] = test system: HepG2 human liver cancer cells; experiment: as above; type: cell-based; conditions: HepG2, 5 μM
Description: as §1

[5] = test system: PANC-1 human pancreatic carcinoma cells; experiment: as above; type: cell-based; conditions: PANC-1, 5 μM
Description: as §1

[6] = test system: U251 human glioma cells; experiment: as above; type: cell-based; conditions: U251, 5 μM; for cell apoptosis: day 6
Description: as §1

[7] = test system: A431 human epidermoid carcinoma cells; experiment: as above; type: cell-based; conditions: A431, 5 μM; for % inhibition of cell growth: day 6, vs untreated cells; for cell apoptosis: day 6
Description: as §1

[8] = test system: LNCAP human prostate cancer cells; experiment: as above; type: cell-based
Description: as §1

[9] = test system: AGS human gastric cancer cells; experiment: as above; type: cell-based; conditions: for inhibition at 5 µM: Homo sapiens, 144 h
Description: as §1

[10] = test system: Jurkat human acute T-cell leukemia cells; experiment: as above; type: cell-based; conditions: 5 μM
Description: as §1

[11] = test system: MDA-MB-468 human breast cancer cells; experiment: as above; type: cell-based; conditions: MDA-MB-468, 5 μM
Description: as §1

[12] = test system: NBT-II human bladder cancer cells; experiment: as above; type: cell-based; conditions: for inhibition at 5 µM: Homo sapiens, 144 h
Description: as §1

[13] = test system: H1299 human lung cancer cells; experiment: as above; type: cell-based; conditions: H1299, 5 μM
Description: as §1

[14] = test system: HT29 cells; experiment: as above; type: cell-based; conditions: HT29, 5 μM
[15] = test system: cells listed in Table 1; experiment: Cancer cell growth, panel of cells listed in Table 1; type: cell-based, human; conditions: 5 μM, day 6, vs untreated cells
Description: as §1

[16] = 5 μM, day 6, about 4×10^4 cells at start
[17] = day 6, about 4×10^4 cells at start
[18] = 5 μM, day 6, vs untreated cells
[19] = Homo sapiens, 144 h, day 6, vs untreated cells

## C=CCOc1ccc(CCNc2ncnc3ccc(N)cc23)cc1
[1]
  cell deaths observed: no obvious cell deaths
[2]
  cell deaths observed: no obvious cell deaths
  inhibition of HIV-1 viral infection and replication (HIV-1-induced Luciferase activity): showed inhibition

## Nc1ccc2ncnc(NCCc3ccc(OCc4ccccn4)cc3)c2c1
[1]
  cell deaths observed: no obvious cell deaths
[2]
  cell deaths observed: no obvious cell deaths
  inhibition of HIV-1 viral infection and replication (HIV-1-induced Luciferase activity): showed inhibition

## Nc1ccc2ncnc(NCCc3ccc(OCc4ccccc4)cc3)c2c1
[1]
  cell deaths observed: no obvious cell deaths
[2]
  cell deaths observed: no obvious cell deaths
  inhibition of HIV-1 viral infection and replication (HIV-1-induced Luciferase activity): showed inhibition

## Nc1ccc2ncnc(NCCc3ccc(Oc4ccccc4)cc3)c2c1
[3]; [16]
  Treated (cell number × 10^5): 1.1 ± 0.1 × 10^5
[3]; 5 μM
  % inhibition of cell growth: 70%
[4]; [17]
  Treated (cell number × 10^5): 0.8 ± 0.1 × 10^5
[4]; day 6, vs untreated cells
  % inhibition of cell growth: 80%
[5]; [17]
  Treated (cell number × 10^5): 1.9 ± 0.1 × 10^5
[5]; day 6, vs untreated cells
  % inhibition of cell growth: 14%
[6]; [17]
  Treated (cell number × 10^5): 7.2 ± 0.2 × 10^5
[6]; day 6, vs untreated cells
  % inhibition of cell growth: 20%
[7]; [17]
  Treated (cell number × 10^5): 3.2 ± 0.2 × 10^5
[7]
  % inhibition of cell growth: 59%
[8]; [16]
  Treated (cell number × 10^5): 0.7 ± 0.2 × 10^5
[8]; [18]
  % inhibition of cell growth: 90%
[9]; [16]
  Treated (cell number × 10^5): 2.1 ± 0.1 × 10^5
[9]; [18]
  % inhibition of cell growth: 10%
[10]; [17]
  Treated (cell number × 10^5): 6.3 ± 0.4 × 10^5
[10]; day 6, vs untreated cells
  % inhibition of cell growth: 28%
[11]; [17]
  Treated (cell number × 10^5): 5.4 ± 0.1 × 10^5
[11]; day 6, vs untreated cells
  % inhibition of cell growth: 10%
[12]; [16]
  Treated (cell number × 10^5): 2.7 ± 0.1 × 10^5
[12]; [18]
  % inhibition of cell growth: 10%
[13]; [17]
  Treated (cell number × 10^5): 3 ± 0.2 × 10^5
[13]; day 6, vs untreated cells
  % inhibition of cell growth: 52%
[14]; [17]
  Treated (cell number × 10^5): 1.9 ± 0.1 × 10^5
[14]; day 6, vs untreated cells
  % inhibition of cell growth: 50%
[1]
  cell deaths observed: no obvious cell deaths
[2]
  cell deaths observed: no obvious cell deaths
  inhibition of HIV-1 viral infection and replication (HIV-1-induced Luciferase activity): showed inhibition
[15]
  inhibition of cell growth, range over the cancer cells of Table 1: 10-90%

## COc1cc(O)c2c(c1)oc(=O)c1c3cc(O)c(O)cc3oc21 [7-Methoxy-5,11,12-trihydroxy-coumestan]
[3]; 5 μM
  % inhibition of cell growth: ~29%
[4]; day 6, vs untreated cells
  % inhibition of cell growth: ~25%
[7]
  % inhibition of cell growth: about 51%
[11]; day 6, vs untreated cells
  % inhibition of cell growth: ~10%
[13]; day 6, vs untreated cells
  % inhibition of cell growth: ~31%

## Cc1ccc(S(=O)(=O)/C=C/C#N)cc1 [BAY 11-7082, (E)3-[(4-Methylphenyl)sulfonyl]-2-propenenitrile, reference compound]
[3]
  inhibition at 5 µM: 9 to 12%
[4]; day 6
  cell apoptosis: completely cell apoptosis
[5]; day 6
  cell apoptosis: completely cell apoptosis
[6]
  cell apoptosis: completely cell apoptosis
[7]
  cell apoptosis: completely cell apoptosis
[8]; 5 μM, day 6
  cell apoptosis: completely cell apoptosis
[9]; day 6, vs untreated cells
  inhibition at 5 µM: ~90%
[11]; [19]
  inhibition at 5 µM: 9 to 12%
[12]; day 6, vs untreated cells
  inhibition at 5 µM: 9 to 12%
[13]; day 6
  cell apoptosis: completely cell apoptosis

## O=C(/C=C/c1ccc(O)c(O)c1)OCCc1ccccc1 [cape, reference compound]
[2]
  cell deaths observed: no obvious cell deaths
  inhibition of HIV-1 viral infection and replication (HIV-1-induced Luciferase activity): showed inhibition

## CC1=C(O)C(=O)C=C2C1=CC=C1[C@@]2(C)CC[C@@]2(C)[C@@H]3C[C@](C)(C(=O)O)CC[C@]3(C)CC[C@]12C [celastrol, 3-hydroxy-24-nor-2-oxo-1(10),3,5,7-friedelatetraen-29-oic Acid, reference compound]
[10]; day 6
  cell apoptosis: about 90%
[2]
  cell deaths observed: no obvious cell deaths

## COc1ccc([C@@]23Oc4cc(OC)cc(OC)c4[C@]2(O)[C@H](O)[C@H](C(=O)N(C)C)[C@H]3c2ccccc2)cc1 [rocaglamide, reference compound]
[3]
  inhibition at 5 µM: 9 to 40%
[4]; [19]
  inhibition at 5 µM: 9 to 40%
[5]; [19]
  inhibition at 5 µM: 9 to 40%
[6]
  cell apoptosis: completely cell apoptosis
[7]
  cell apoptosis: completely cell apoptosis
[8]; [19]
  inhibition at 5 µM: ~70%
[9]; day 6, vs untreated cells
  inhibition at 5 µM: ~50%
[11]; day 6
  cell apoptosis: completely cell apoptosis
[12]; day 6, vs untreated cells
  inhibition at 5 µM: 9 to 40%
[13]; Homo sapiens, NCI-H1299, 144 h, day 6, vs untreated cells
  inhibition at 5 µM: ~80%
[2]
  cell deaths observed: no obvious cell deaths
  inhibition of HIV-1 viral infection and replication (HIV-1-induced Luciferase activity): showed inhibition
